Legend:
[1] = biological target: Sigma non-opioid intracellular receptor 1 (Homo sapiens, UniProt Q99720); test: DRUGMATRIX: Sigma1 radioligand binding (ligand: [3H] Haloperidol); format: cell membranes, Jurkat, Membrane; settings: Not Active = under 50% inhibition at 10 µM
[2] = biological target: Mitogen-activated protein kinase 3 (Homo sapiens, UniProt P27361); test: DRUGMATRIX: Protein Serine/Threonine Kinase, ERK1 enzyme inhibition (substrate: Myelin Basic Protein); parameters: species or system Escherichia coli; settings: Not Active = under 50% inhibition at 10 µM
[3] = DRUGMATRIX: Sodium/nucleoside co-transporter radioligand binding (ligand: nitrobenzylthioinosine); format: cell membranes, Cavia porcellus, Dunkin-Hartley, Cerebral cortex, Membrane; settings: Not Active = under 50% inhibition at 10 µM
D(4) dopamine receptor = biological target: T1, D(4) dopamine receptor (Homo sapiens, UniProt P21917); test: DRUGMATRIX: Dopamine D4.2 radioligand binding (ligand: [3H] Spiperone); format: cell membranes, Membrane; settings: cho-k1; Not Active = under 50% inhibition at 10 µM
T1 sequence (P21917 whole entry): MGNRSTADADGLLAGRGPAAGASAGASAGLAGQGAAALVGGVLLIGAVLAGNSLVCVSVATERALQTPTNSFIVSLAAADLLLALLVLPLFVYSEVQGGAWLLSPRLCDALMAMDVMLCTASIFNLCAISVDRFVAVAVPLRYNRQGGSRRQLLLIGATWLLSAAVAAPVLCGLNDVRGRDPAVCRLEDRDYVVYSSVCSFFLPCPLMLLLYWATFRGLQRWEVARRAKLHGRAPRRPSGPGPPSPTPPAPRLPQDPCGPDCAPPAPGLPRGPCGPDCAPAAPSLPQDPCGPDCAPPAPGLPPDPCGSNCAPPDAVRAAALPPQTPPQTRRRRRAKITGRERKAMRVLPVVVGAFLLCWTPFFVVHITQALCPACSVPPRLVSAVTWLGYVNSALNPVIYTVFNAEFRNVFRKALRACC

[4] = DRUGMATRIX: Tumor Necrosis Factor (TNF), Non-Selective radioligand binding (ligand: [125I] TNF-alpha); format: cell membranes, Membrane; settings: u-937; Not Active = under 50% inhibition at 10 µM
[5] = biological target: T2, 5-hydroxytryptamine receptor 2C (Homo sapiens, UniProt P28335); test: DRUGMATRIX: Serotonin (5-Hydroxytryptamine) 5-HT2C radioligand binding (ligand: [3H] Mesulergine); format: cell membranes, CHO-K1, Membrane; settings: cho-k1; Not Active = under 50% inhibition at 10 µM
T2 sequence (P28335 whole entry): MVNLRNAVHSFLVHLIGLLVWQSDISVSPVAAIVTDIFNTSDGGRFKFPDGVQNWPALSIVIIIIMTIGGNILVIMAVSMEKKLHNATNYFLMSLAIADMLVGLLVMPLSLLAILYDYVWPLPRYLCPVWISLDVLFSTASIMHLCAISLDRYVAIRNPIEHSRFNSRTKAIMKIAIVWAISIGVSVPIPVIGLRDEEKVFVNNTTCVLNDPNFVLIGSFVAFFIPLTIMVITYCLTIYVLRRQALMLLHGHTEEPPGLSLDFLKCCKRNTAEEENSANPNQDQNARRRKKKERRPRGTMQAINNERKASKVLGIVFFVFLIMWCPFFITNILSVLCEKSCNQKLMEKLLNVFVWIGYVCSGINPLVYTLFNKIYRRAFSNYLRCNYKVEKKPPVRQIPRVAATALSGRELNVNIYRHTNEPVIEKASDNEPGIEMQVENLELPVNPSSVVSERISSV

[6] = biological target: Beta-1 adrenergic receptor (Homo sapiens, UniProt P08588); test: DRUGMATRIX: Adrenergic beta1 radioligand binding (ligand: [125I] Cyanopindolol); format: cell membranes, CHO-K1, Membrane; settings: cho-k1; Not Active = under 50% inhibition at 10 µM
[7] = biological target: Protein kinase C alpha type (Homo sapiens, UniProt P17252); format: cell-based; settings: sf9;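 also: inhibition of PKCalpha kinase activity measured in an enzyme assay with histone as the phosphorylation substrate; in other assays of this panel Not Active means under 50% inhibition at 10 µM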

Sequence of Beta-1 adrenergic receptor (P08588 whole entry): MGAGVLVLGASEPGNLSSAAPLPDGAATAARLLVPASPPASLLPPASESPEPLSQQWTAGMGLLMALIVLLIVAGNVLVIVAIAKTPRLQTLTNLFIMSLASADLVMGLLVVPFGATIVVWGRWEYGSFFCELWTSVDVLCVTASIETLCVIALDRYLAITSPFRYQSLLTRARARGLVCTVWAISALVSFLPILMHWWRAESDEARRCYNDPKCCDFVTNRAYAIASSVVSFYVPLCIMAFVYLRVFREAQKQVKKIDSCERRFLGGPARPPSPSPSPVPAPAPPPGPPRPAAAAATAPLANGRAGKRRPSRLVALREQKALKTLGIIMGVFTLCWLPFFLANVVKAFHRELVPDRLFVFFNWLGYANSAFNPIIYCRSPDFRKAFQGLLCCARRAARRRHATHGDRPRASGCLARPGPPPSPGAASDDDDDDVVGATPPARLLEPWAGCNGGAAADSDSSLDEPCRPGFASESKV
Sequence of Sigma non-opioid intracellular receptor 1 (Q99720 whole entry): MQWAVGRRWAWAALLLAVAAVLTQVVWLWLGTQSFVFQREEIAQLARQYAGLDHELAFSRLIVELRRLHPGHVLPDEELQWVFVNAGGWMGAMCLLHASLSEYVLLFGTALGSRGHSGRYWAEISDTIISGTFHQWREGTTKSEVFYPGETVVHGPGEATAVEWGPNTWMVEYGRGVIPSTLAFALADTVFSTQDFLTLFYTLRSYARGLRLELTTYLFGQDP
Sequence of Mitogen-activated protein kinase 3 (P27361 whole entry): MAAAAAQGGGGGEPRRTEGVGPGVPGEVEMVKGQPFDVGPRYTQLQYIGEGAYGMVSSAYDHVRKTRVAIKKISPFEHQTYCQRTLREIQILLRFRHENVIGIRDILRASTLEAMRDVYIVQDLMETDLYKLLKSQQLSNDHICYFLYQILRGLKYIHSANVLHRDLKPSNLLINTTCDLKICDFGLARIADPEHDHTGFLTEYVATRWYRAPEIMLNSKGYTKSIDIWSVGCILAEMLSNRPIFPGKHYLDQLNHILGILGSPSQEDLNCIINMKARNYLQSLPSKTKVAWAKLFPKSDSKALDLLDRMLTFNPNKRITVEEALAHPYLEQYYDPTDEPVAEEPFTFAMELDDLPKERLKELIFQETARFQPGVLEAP

Compound | IC50 ([1]; jurkat) | IC50 [2] | IC50 [3] | Ki [3] | IC50 (D(4) dopamine receptor) | IC50 [4] | Ki [4] | IC50 [5] | IC50 [6] | IC50 [7] | Ki ([1]; jurkat) | Ki [2] | Ki (D(4) dopamine receptor) | Ki [5] | Ki [6] | Ki [7] | IC50 ([1]; read-out: IC50) [nM] | Ki ([1]; read-out: Ki) [nM]
CC(=O)Nc1ccc(O)cc1 [ACETAMINOPHEN] | Not Active | Not Active | Not Active | Not Active | Not Active | Not Active | Not Active | Not Active | Not Active | Not Active |  |  |  |  |  |  |  | 
CCCCN1CCCCC1C(=O)Nc1c(C)cccc1C.Cl (configuration not stated) [BUPIVACAINE HYDROCHLORIDE] | Not Active | Not Active | Not Active | Not Active | Not Active | Not Active | Not Active | Not Active | Not Active | Not Active |  |  |  |  |  |  |  | 
Nc1ccn([C@@H]2CS[C@H](CO)O2)c(=O)n1 [LAMIVUDINE] | Not Active | Not Active | Not Active | Not Active | Not Active | Not Active | Not Active | Not Active | Not Active | Not Active |  |  |  |  |  |  |  | 
COP(=O)(OC)OC=C(Cl)Cl [DICHLORVOS] | Not Active | Not Active | Not Active | Not Active | Not Active | Not Active | Not Active | Not Active | Not Active | Not Active |  |  |  |  |  |  |  | 
CADMIUM DICHLORIDE | Not Active | Not Active | Not Active | Not Active | Not Active | Not Active | Not Active | Not Active | Not Active | Not Active | Not Active | Not Active | Not Active | Not Active | Not Active | Not Active |  | 
C[C@](O)(CS(=O)(=O)c1ccc(F)cc1)C(=O)Nc1ccc(C#N)c(C(F)(F)F)c1 [(R)-BICALUTAMIDE] | Not Active | Not Active | Not Active | Not Active | Not Active | Not Active | Not Active | Not Active | Not Active | Not Active |  |  |  |  |  |  |  | 
Cc1nccn1CC1CCc2c(c3ccccc3n2C)C1=O (configuration not stated) [ONDANSETRON] | Not Active | Not Active | Not Active | Not Active | Not Active | Not Active | Not Active | Not Active | Not Active | Not Active |  |  |  |  |  |  |  | 
CCOC(=O)[C@H](CCc1ccccc1)N[C@H]1CCc2ccccc2N(CC(=O)O)C1=O [BENAZEPRIL] | Not Active | Not Active | Not Active | Not Active | Not Active | Not Active | Not Active | Not Active | Not Active | Not Active |  |  |  |  |  |  |  | 
CCCCOc1ccc(OCCCN2CCOCC2)cc1 [PRAMOXINE] |  | Not Active | Not Active | Not Active | Not Active | Not Active | Not Active | Not Active | Not Active | Not Active |  |  |  |  |  |  | 121 | 51
COc1cccc2c1C(=O)c1c(O)c3c(c(O)c1C2=O)C[C@@](O)(C(=O)CO)C[C@@H]3O[C@H]1C[C@H](N)[C@H](O)[C@H](C)O1 [DOXORUBICIN] | Not Active | Not Active | Not Active | Not Active | Not Active | Not Active | Not Active | Not Active | Not Active | Not Active |  |  |  |  |  |  |  | 
C[C@H]1C[C@H]2[C@@H]3CCC4=CC(=O)C=C[C@]4(C)[C@@]3(Cl)[C@@H](O)C[C@]2(C)[C@@]1(O)C(=O)CO [BECLOMETHASONE] | Not Active | Not Active | Not Active | Not Active | Not Active | Not Active | Not Active | Not Active | Not Active | Not Active |  |  |  |  |  |  |  | 
CCN(CC)CCOC(=O)c1ccc(N)cc1 [PROCAINE] | Not Active | Not Active | Not Active | Not Active | Not Active | Not Active | Not Active | Not Active | Not Active | Not Active |  |  |  |  |  |  |  | 
O=C(O)Cc1ccccc1Nc1c(Cl)cccc1Cl [DICLOFENAC] | Not Active | Not Active | Not Active | Not Active | Not Active | Not Active | Not Active | Not Active | Not Active | Not Active |  |  |  |  |  |  |  | 
CC(C)[C@H]1CC[C@H](C(=O)N[C@H](Cc2ccccc2)C(=O)O)CC1 [NATEGLINIDE] | Not Active | Not Active | Not Active | Not Active | Not Active | Not Active | Not Active | Not Active | Not Active | Not Active |  |  |  |  |  |  |  | 
Nc1c(CC(=O)O)cccc1C(=O)c1ccc(Br)cc1 [BROMFENAC] | Not Active | Not Active | Not Active | Not Active | Not Active | Not Active | Not Active | Not Active | Not Active | Not Active |  |  |  |  |  |  |  | 
CC(=O)Nc1cccc(O)c1 [METACETAMOL] | Not Active | Not Active | Not Active | Not Active | Not Active | Not Active | Not Active | Not Active | Not Active | Not Active |  |  |  |  |  |  |  | 
CCn1cc(C(=O)O)c(=O)c2cc(F)c(N3CCN(C)CC3)cc21 [PEFLOXACIN] | Not Active | Not Active | Not Active | Not Active | Not Active | Not Active | Not Active | Not Active | Not Active | Not Active |  |  |  |  |  |  |  | 
COc1ccc2c(c1)c(CC(=O)O)c(C)n2C(=O)c1ccc(Cl)cc1 [INDOMETHACIN] | Not Active | Not Active | Not Active | Not Active | Not Active | Not Active | Not Active | Not Active | Not Active | Not Active |  |  |  |  |  |  |  | 
C[C@H]1O[C@@H](O[C@H]2[C@@H](O)C[C@H](O[C@H]3[C@@H](O)C[C@H](O[C@H]4CC[C@@]5(C)[C@H](CC[C@@H]6[C@@H]5CC[C@]5(C)[C@@H](C7=CC(=O)OC7)CC[C@]65O)C4)O[C@@H]3C)O[C@@H]2C)C[C@H](O)[C@@H]1O [DIGITOXIN] | Not Active | Not Active | Not Active | Not Active | Not Active | Not Active | Not Active | Not Active | Not Active | Not Active |  |  |  |  |  |  |  | 
S=C=Nc1cccc2ccccc12 [1-NAPHTHYLISOTHIOCYANATE] | Not Active | Not Active | Not Active | Not Active | Not Active | Not Active | Not Active | Not Active | Not Active | Not Active |  |  |  |  |  |  |  | 
C[C@]12CC[C@@H]3c4ccc(O)cc4CC[C@H]3[C@@H]1CC[C@@H]2O [ESTRADIOL] | Not Active | Not Active | Not Active | Not Active | Not Active | Not Active | Not Active | Not Active | Not Active | Not Active |  |  |  |  |  |  |  | 
